One series addresses r cathepsin S (Homo sapiens, UniProt P25774). The series is described as follows: In vitro assay for cathepsin S inhibition. Format: biochemical. Particulars: substrate N-CBZ-Val-Val-Arg-AMC, pH 6.5, 10 min preincubation. The method, then:
To a […] of enzyme-buffer mixture (enzyme: r cathepsin S, diluted to give approximate 30 F units/min, buffer: 100 mM sodium phosphate, 1 mM EDTA, 5 mM DTT, 0.01% Brij, pH 6.5) a 10 μl of inhibitor (dissolved in DMSO) was added. After 10 min of incubation at room temperature a […] of 1.2 mM substrate (N-CBZ-Val-Val-Arg-AMC, dissolved in DMSO) was added to initiate reaction. Reading is followed up for 10 min at the fluoroscan 11 plate reader (excitation at 380 nm emission at 460 nm).
(§1) A plot of percentage of inhibition vs inhibitor concentration is obtained, and IC50 is determined using a linear regression calculations (concentration of inhibitor which will give 50% inhibition).

The target in the next series is r rat cathepsin L (Rattus norvegicus, UniProt P07154). The series is described as follows: In vitro assay for cathepsin L inhibition. Format: biochemical. Particulars: substrate N-CBZ-Phe-Arg-AMC, pH 5.0, 10 min preincubation. The method, then:
After 10 min of incubation at room temperature, a 20 μl of 1 mM substrate (N-CBZ-Phe-Arg-AMC, dissolved in DMSO) was added to initiate reaction. Reading is followed up for 10 min at the fluoroscan reader (excitation at 380 nm emission at 460 nm).
as §1

The next series has as its target T1, r cathepsin K (Homo sapiens, UniProt P43235).
T1 sequence (P43235 115-329): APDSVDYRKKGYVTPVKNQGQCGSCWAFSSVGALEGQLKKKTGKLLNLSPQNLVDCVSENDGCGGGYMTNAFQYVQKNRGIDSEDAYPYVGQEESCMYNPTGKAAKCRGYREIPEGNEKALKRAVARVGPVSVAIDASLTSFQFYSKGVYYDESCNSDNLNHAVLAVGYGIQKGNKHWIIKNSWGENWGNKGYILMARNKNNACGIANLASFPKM
The experiment in a line: In vitro assay for cathepsin K inhibition. Format: biochemical. The following applies: substrate N-CBZ-Phe-Arg-AMC, pH 5.5, 10 min preincubation. As for the experimental part:
To a […] of enzyme-buffer mixture (enzyme: r cathepsin K, diluted to give approximate 30 F units/min, buffer: 100 mM sodium acetate, 5 mM EDTA, 20 mM L-cysteine, 0.01% Brij, pH 5.5) a 10 μl of inhibitor (dissolved in DMSO) was added. After 10 min of incubation at room temperature, a 20 μl of 2.7 mM substrate (N-CBZ-Phe-Arg-AMC, dissolved in DMSO) was added to initiate reaction. Reading is followed up for 10 min at the fluoroscan II plate reader (excitation at 380 nm emission at 460 nm).
as §1

The next series addresses r rat cathepsin B (Rattus norvegicus, UniProt P00787). The experiment in a line: In vitro assay for cathepsin B inhibition. The format is biochemical. The following applies: substrate N-CBZ-Phe-Arg-AMC, pH 5.1, 10 min preincubation. As for the experimental part:
The compounds of formula I were tested for inhibition of cathepsin B using the known method (A. J. Barret et al., Biochem. J. 1982, 201, 189-198). To a 170 μl of enzyme-buffer mixture (enzyme: r rat cathepsin B, diluted to give approximate 10 F units/min, buffer: 56 mM sodium acetate, 1.124 mM EDTA, 10 mM DTT, pH 5.1) a 10 μl of inhibitor (dissolved in DMSO) was added. After 10 min of incubation at room temperature, a 20 μl of 5 mM substrate (N-CBZ-Phe-Arg-AMC, dissolved in DMSO) was added to initiate reaction. Reading is followed up for 10 min at the fluoroscan reader (excitation at 380 nm emission at 460 nm).
as §1

Series [1] in a line: Pharmacokinetics in mice after single oral dose. The format is in vivo. Further details: Cl/F: unit not given here. Particulars: single oral dose of 5 mg/kg; for AUC / Cmax / half-life / Vd/F: mouse, in vivo; for Vd/F: read-out: Vz/F. As for the experimental part:
Selected compounds of present invention were tested in rodents. This class of compound has favorable pharmacokinetics at the oral dose of 5 mg/kg. The bioavailability is about 60-70%.

Sequence of r rat cathepsin L (P07154 114-334): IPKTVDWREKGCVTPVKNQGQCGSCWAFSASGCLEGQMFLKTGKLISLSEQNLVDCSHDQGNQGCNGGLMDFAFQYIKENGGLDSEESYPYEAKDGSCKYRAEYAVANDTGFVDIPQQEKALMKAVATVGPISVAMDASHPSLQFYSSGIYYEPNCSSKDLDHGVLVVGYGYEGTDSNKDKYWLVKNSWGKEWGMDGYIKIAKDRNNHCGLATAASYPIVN
Sequence of r rat cathepsin B (P00787 80-333): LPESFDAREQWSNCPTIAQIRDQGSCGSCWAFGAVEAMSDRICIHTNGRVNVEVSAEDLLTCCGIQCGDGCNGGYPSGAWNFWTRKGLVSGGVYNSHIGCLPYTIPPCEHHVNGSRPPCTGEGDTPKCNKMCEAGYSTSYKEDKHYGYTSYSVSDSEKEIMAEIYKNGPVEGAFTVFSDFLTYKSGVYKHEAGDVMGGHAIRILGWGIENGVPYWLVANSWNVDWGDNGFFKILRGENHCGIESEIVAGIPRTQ
Sequence of r cathepsin S (P25774 115-331): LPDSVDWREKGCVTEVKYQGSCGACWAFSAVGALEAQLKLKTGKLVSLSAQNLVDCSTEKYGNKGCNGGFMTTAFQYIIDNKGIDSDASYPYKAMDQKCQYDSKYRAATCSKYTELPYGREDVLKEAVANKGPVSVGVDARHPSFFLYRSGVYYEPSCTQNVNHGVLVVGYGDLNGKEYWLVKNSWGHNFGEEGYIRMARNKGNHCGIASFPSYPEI

As to `CC(C)C[C@H](NC(=O)CCc1ccccc1)C(=O)NC1=CNC2(CCCCCC2)NC1=O` [Example 19, 5-[2-(3-Phenylpropionoyl)-amino-2-isobutyl]acetamido-2,2-spirocycloheptyl-2,3-dihydopyrimidine-6-(1H)one], the IC50 (usually the midpoint of a concentration-inhibition curve) against r cathepsin S is 68 nM; against r rat cathepsin L, 450 nM; at r cathepsin K it was 91 nM; against r rat cathepsin B, 5220 nM.
For `CC(C)C[C@H](NC(=O)CCc1ccccc1)C(=O)NC1=CNC2(CCCC2)NC1=O` [Example 17, 5-[2-(3-Phenylpropionyl)-amino-2-isobutyl]acetamido-2,2-spirocyclopentyl-2,3-dihydopyrimidine-6-(1H)one] the same measures were 8490 nM, > 50000 nM, 12100 nM and > 50000 nM.
`CC(C)C[C@H](NC(=O)OCc1ccccc1)C(=O)NC1=CNC(C(C)(C)C)NC1=O` (stereo partly drawn) [Example 8, 5-[2-(Benzyloxycarbonyl)-amino-2-isobutyl]acetamido-2-tert-butyl-2,3-dihydopyrimidine-6-(1H)one]: the IC50 against r cathepsin S was 480 nM; against r rat cathepsin L, 480 nM; at r cathepsin K it was 74 nM; at r rat cathepsin B it was 4560 nM.
On to `CC(C)C[C@H](NC(=O)OCc1ccccc1)C(=O)NC1=CNC(c2ccccc2)NC1=O` (stereo partly drawn) [Example 1, 5-[2-(Benzyloxycarbonyl)amino-2-isobutyl]acetamido-2-phenyl-2,3-dihydopyrimidine-6-(1H)one], for which the IC50 against r cathepsin S came out at 460 nM; at r rat cathepsin L it was 460 nM; at r cathepsin K it was 340 nM; on r rat cathepsin B it was 4010 nM.
In the case of `CC(C)C[C@H](NC(=O)OCc1ccccc1)C(=O)Nc1c[nH]c(=O)[nH]c1=O` [Example 14, 5-[2-(Benzyloxycarbonyl)-amino-2-isobutyl]acetamido Pyrimidin-2,6-dione], the IC50 at r cathepsin S, against r rat cathepsin L, at r cathepsin K and against r rat cathepsin B was > 50000 nM in each case.
For the molecule `CC(C)C[C@H](NC(=O)c1cc2ccccc2s1)C(=O)NC1=CNC(c2ccccc2F)NC1=O` (stereo partly drawn) [Example 21, 5-[2-(Benzothiophene-2-yl)amino-2-isobutyl]acetamido-2-(2-fluorophenyl)-2,3-dihydopyrimidine-6-(1H)one], the IC50 at r cathepsin S is 37 nM. The molecule further returned an IC50 on r rat cathepsin L of 170 nM. This molecule showed an IC50 at r cathepsin K of 14 nM. In series [1], the AUC – broadly, the area under the concentration-time curve, a measure of exposure – is 853 ng·h/mL; the Cmax (as a rule, the peak of the concentration-time curve) came to 2610 ± 1840 ng/mL; the half-life (as a rule, the time in which the quantity being followed falls by half) was 0.54 ± 0.39 h; the Vd/F came to 4.49 ± 3.03 L/kg. This molecule also had a Cl/F in series [1] of 2.09 ± 0.72. At r rat cathepsin B, this molecule showed an IC50 of 420 nM.
`CC(C)C[C@H](NC(=O)OCc1ccccc1)C(=O)NC1=CNC2(CCCC2)NC1=O` [Example 6, 5-[2-(Benzyloxycarbonyl)amino-2-isobutyl]acetamido-2,2-spirocyclopentyl-2,3-dihydopyrimidine-6-(1H)one]: on r cathepsin S, it took 480 nM to reach half-maximal inhibition (IC50). Besides, at r rat cathepsin L, the IC50 was 1790 nM. On r cathepsin K, this molecule registered an IC50 of 100 nM. For the same molecule, in series [1], the AUC is 2730 ng·h/mL, the Cmax came out at 3830 ± 3090 ng/mL, the half-life was 1.63 ± 0.48 h and the Vd/F turned out to be 4.49 ± 1.9 L/kg. The Cl/F in series [1] is 0.617 ± 0.08. Further, 3160 nM corresponded to half-maximal inhibition against r rat cathepsin B (IC50).
Take `CC(C)C[C@H](NC(=O)OCc1ccccc1)C(=O)NC1=CNC(c2ccncc2)NC1=O` (stereo partly drawn) [Example 9, 5-[2-(Benzyloxycarbonyl)-amino-2-isobutyl]acetamido-2-(pyridin-4-yl)-2,3-dihydopyrimidine-6-(1H)one]: the IC50 was found to be 55 nM at r cathepsin S, 460 nM against r rat cathepsin L, 18 nM against r cathepsin K and 2290 nM against r rat cathepsin B.
Taken in the same sequence, the figures for `CC(C)C[C@H](NC(=O)OCc1ccccc1)C(=O)NC1=CNC(c2ccccc2F)NC1=O` (stereo partly drawn) [Example 2, 5-[2-(Benzyloxycarbonyl)amino-2-isobutyl]acetamido-2-(2-fluorophenyl)-2,3-dihydopyrimidine-6-(1H)one] were 290 nM, 920 nM, 57 nM and 8380 nM.
For `CC(C)C[C@H](NC(=O)OCc1ccccc1)C(=O)NC1=CNC(c2ccco2)NC1=O` (stereo partly drawn) [Example 20, 5-[2-(Benzyloxycarbonyl)amino-2-isobutyl]acetamido-2-(furan-2-yl)-2,3-dihydopyrimidine-6-(1H)one] the same measures were 94 nM, 1500 nM, 45 nM and 2350 nM.
In the case of `CC(C)C[C@H](NC(=O)OCc1ccccc1)C(=O)NC1=CNC(CC(C)(C)C)NC1=O` (stereo partly drawn) [Example 10, 5-[2-(Benzyloxycarbonyl)-amino-2-isobutyl]acetamido-2-tert-butylmethyl-2,3-dihydopyrimidine-6-(1H)one], the IC50 against r cathepsin S came to 2320 nM; on r rat cathepsin L, 2320 nM; against r cathepsin K, 250 nM; against r rat cathepsin B, 9530 nM.

The values are drawn from patent US20040024000A1, “Dihydropyrimidine derivatives as cysteine protease inhibitors” (priority 2003, published 2004).
